Like-named read-outs stand apart in the source and are kept apart here.

We go through one compound from patent US20260294915A1, “COMBINATION THERAPY COMPRISING A MAT2A INHIBITOR AND A TOPOISOMERASE INHIBITOR, A SPLICING INHIBITOR SULFONAMIDE, OR A KIF18 INHIBITOR” (IDEAYA BIOSCIENCES, INC., priority 2023, published 2026).

One assay deals with HuP-T4. Description: 10-day proliferation screen with Compound A pre-treatment (Example 3). The assay is classed as cell-based. The settings on record: Homo sapiens, read-out: Growth IC50. How it is done: (§1) A 10-day proliferation screen was performed in 15 pancreatic, non-small cell lung, and bladder cancer cell lines: 10 MTAP null and 5 MTAP wild-type. Optimal cell seeding for all cell lines was determined by assessing the growth over a range of seeding densities in a 384-well format to identify conditions that permitted proliferation for 10 days. Cells were then plated at the optimal seeding density in the presence of 20-150 nM of Compound A or DMSO vehicle control. Cells were incubated at 37° C. with 5% CO2 for 4 days to allow for target engagement of the pre-treatment compound. Maintaining the pre-treatment condition, cells were also treated with an 11-point, three-fold titration series of compounds from a chemically diverse library of 424 compounds. The combination compound concentrations ranged from 0.2 nM to 14,679 nM. A plate of cells was harvested at the time of combination compound addition to quantify the number of cells at the start of the combination (T0). For cell quantification, the harvested cells were lysed with CellTiter-Glo (CTG) (Promega) reagent according to the manufacturer's protocol and the chemiluminescent signal was detected on a Synergy Neo plate reader (ThermoFisher, serial #140715A). CTG estimates cell number through detection of cellular ATP levels. Cells were incubated with the drug combinations at 37° C. with 5% CO2 for an additional 6 days for a total of a 10-day assay including the pre-treatment. Cells were then lysed with CTG and the chemiluminescent signal was measured. CTG values obtained after the 10-day treatment were background subtracted, expressed as a percent of the T0 value, and plotted against compound concentration. Data were fit with a four-parameter equation to generate concentration response curves. Growth IC50 values and maximal growth inhibition were compared between the DMSO and the Compound A pre-treated cells for each combination titration. Combination hit calling was based on the observation of >2-fold shift in growth IC50 and/or greater than 20% […] in growth inhibition.

The next assay has as its system TCCSUP. The assay is described as above. The assay is classed as cell-based. As to conditions: Homo sapiens, TCC-SUP, read-out: Growth IC50. How it is done:
as §1

For `NS(=O)(=O)c1ccc(S(=O)(=O)Nc2cccc3c(Cl)c[nH]c23)cc1` [Indisulam, N-(3-chloro-1H-indol-7-yl)benzene-1,4-disulfonamide], the half-maximal inhibitory concentration (IC50) with HuP-T4 (HuP-T4, Cmpd A pre-treatment 150 nM) amounted to 0.549 µM; in the assay with HuP-T4 (HuP-T4, DMSO pre-treatment) it was 1.07 µM; with TCCSUP (Cmpd A pre-treatment 150 nM) it was 6.08 µM; with TCCSUP (DMSO pre-treatment), 8.66 µM.

The term IC50 denotes the concentration that inhibits the measured activity by half.
